We go through one molecule from publication PMC13415951 (Journal of Experimental Botany, 2026).

One data set deals with T1, OsUGT79 (Oryza sativa subsp. japonica, UniProt Q7XT97).
T1 construct: made in house; host or cells: E. coli
T1 sequence (Q7XT97 1-466): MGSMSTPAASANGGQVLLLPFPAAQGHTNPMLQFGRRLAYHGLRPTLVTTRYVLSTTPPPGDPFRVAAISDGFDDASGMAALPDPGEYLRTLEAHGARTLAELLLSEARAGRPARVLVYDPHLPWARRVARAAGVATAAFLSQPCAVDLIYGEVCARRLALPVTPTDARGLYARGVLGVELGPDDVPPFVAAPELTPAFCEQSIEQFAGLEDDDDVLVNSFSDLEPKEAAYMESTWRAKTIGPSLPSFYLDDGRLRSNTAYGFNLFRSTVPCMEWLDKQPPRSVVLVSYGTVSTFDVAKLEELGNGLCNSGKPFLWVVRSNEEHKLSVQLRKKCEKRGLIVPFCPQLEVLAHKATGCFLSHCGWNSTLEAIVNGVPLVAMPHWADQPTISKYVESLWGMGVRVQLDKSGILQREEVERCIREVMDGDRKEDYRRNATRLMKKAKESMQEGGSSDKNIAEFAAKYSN
Briefly: biochemical. Type of data set: biochemical.

Data set [1] concerns wheat cultivar Apogee seedlings. Also noted: species or system Triticum aestivum. To be noted: in vivo.
Data set [2] deals with roots of Brachypodium distachyon seedlings. Briefly: Extracts from B. distachyon roots exposed to mycotoxin, LC-MS/MS. As to conditions: 24 h; for D3G synthesis in the presence of CUL: 50 mg l^−1 DON, 10 mg l^−1 CUL. Type of data set: in vivo. As to the method:
(§1) Seedlings of Apogee and B. distachyon with roots 1–2 cm long were incubated in full-strength MS without sucrose and containing 50 mg l^−1 DON and/or either 50 mg l^−1 CUL (Apogee) or 10 mg l^−1 CUL (B. distachyon). The seedlings were placed into sterile 2 ml tubes containing 500 µl medium such that only the roots were submerged. After 24 h incubation under the same conditions as specified above for the elongation assays, the roots were cut from the seedlings, washed with 10% ethanol, briefly dried with tissue paper, and weighed. The roots were then ground in the Retsch Ball Mill MM 400 for 1 min at 30× s^−1 using two 5 mm steel balls, after which 500 µl methanol was added and the roots were extracted for 2 h at room temperature. The concentrations of DON, D3G, CUL, and CUL-glucosides were determined by LC-MS/MS.
DON, D3G, CUL, and CUL-glucosides were measured on a 6500+ QTrap MS/MS instrument (Sciex) coupled to an Agilent 1290 UHPLC system. A Kinetex C18 column (150×2.1 mm, 2.6 µm particle size; Phenomenex, Torrance, USA) was used for separation at 30 °C. Mobile phases consisted of mixtures of methanol and water (A, 10% MeOH; B, 97% MeOH) and both contained 5 mM ammonium acetate. A flow rate of 250 µl min^–1 and an injection volume of 1 µl were chosen. The gradient started with 0% B for 1.0 min and then increased linearly to 100% B at 8.5 min. The column was rinsed with 100% B for 3 min, before equilibration with the start conditions for another 3 min until the end of the run at 14.5 min. The switching valve of the mass spectrometer directed the eluent into the ion source between 3.0 min and 11.0 min. […] DON and D3G were detected in negative ion mode first, and after 4.5 min the polarity was changed to positive electrospray mode to detect CUL and CUL-glucosides. […] D3G was determined with the [M+CH3COO]^− ion as the precursor (DP −80 V) with the following SRM settings: m/z 517.2 > 427.1 (CE −30 eV) and m/z 517.2 > 59.1 (CE −85 eV). […]

The next data set has as its target T2, OsUGT79 Q202A (Oryza sativa subsp. japonica, UniProt Q7XT97, Q202A).
T2 sequence (Q7XT97 1-466 Q202A): T1 sequence (Q7XT97 1-466) with Q202A
Briefly: biochemical. Type of data set: biochemical.

The test system of a further data set is piglets. Details: method as in Rotter et al., 1992. As to conditions: ref Rotter et al., 1992; cited from earlier work.
Data set [3] relates to roots of wheat cultivar Apogee seedlings. Kind of data set: Extracts from wheat roots exposed to mycotoxin, LC-MS/MS. In kind it is in vivo, Triticum aestivum. As to conditions: 24 h. As to the method:
as §1
DON, D3G, CUL, and CUL-glucosides were measured on a 6500+ QTrap MS/MS instrument (Sciex) coupled to an Agilent 1290 UHPLC system. A Kinetex C18 column (150×2.1 mm, 2.6 µm particle size; Phenomenex, Torrance, USA) was used for separation at 30 °C. […] DON and D3G were detected in negative ion mode first, and after 4.5 min the polarity was changed to positive electrospray mode to detect CUL and CUL-glucosides. […] D3G was determined with the [M+CH3COO]^− ion as the precursor (DP −80 V) with the following SRM settings: m/z 517.2 > 427.1 (CE −30 eV) and m/z 517.2 > 59.1 (CE −85 eV). […]

Setting [4] is: read-out: Glucosylation rate of DON, percentage of the control.

Substitutions are numbered along the chain they refer to.

The Ki is a dissociation constant, usually derived from enzyme kinetics or from competition with a known ligand. Low values mean tighter binding, high ones weaker binding. With `CC1(C)CCC[C@]2(C)[C@@H]3[C@H]1[C@@H](O)[C@@]2(C)C[C@H]3O` [CUL, culmorin], at OsUGT79, the “CUL glucosylation rate compared with DON” value was 1–2% and the “Specific activity (glucoside formation)” value was determined as 1.85 ± 0.05 nmol/min/mg. Also, at OsUGT79 (setting [4]), the remaining activity at 25 µM turned out to be 64 ± 3% and the remaining activity at 125 µM stood at 33 ± 4%. Also, in data set [1], the “Effect of CUL applied together with DON on root length” value was “significantly increased the degree of reduction of root length”; the “Effect on primary and total root length” value was “did not cause a significant change”. Further, in data set [2] (Brachypodium distachyon, OE-10R14 roots, 50 mg l^−1 DON with 10 mg l^−1 CUL, read-out: Reduction of D3G synthesis in the presence of CUL), the inhibition at 10 µg/mL is roughly 58.6%. For the same molecule, the “D3G synthesis in the presence of CUL” value in data set [2] (TILLING line 6829-3 (wild-type BdUGT5g03300 allele)) was “suppressed”. Also, in data set [2] (TILLING mutant 6829-7 (BdUGT5g03300 W345*)), the “D3G synthesis in the presence of CUL” value is listed as “not further reduced”. Further, at OsUGT79 Q202A, the “K iu of CUL (uncompetitive inhibition, DON as variable substrate)” value was 56 µM and affinity was put at a Ki of 16 µM. Besides, the “Effect on growth of piglets” value in the data set with piglets is on record as “no negative effects”. Besides, in data set [3] (50 mg l^−1 DON with 50 mg l^−1 CUL), the “Effect of CUL on DON uptake by the roots” value was “did not inhibit DON uptake”. The “Reduction in the D3G concentration in the roots caused by CUL” value in data set [3] (50 mg l^−1 DON with 50 mg l^−1 CUL vs DON alone) was roughly 6 fold.
